Results published in patent US20090105562A1, “SYSTEM AND METHODS FOR SCREENING OR ANALYZING TARGETS” (TAIPEI VETERANS GENERAL HOSPITAL, priority 2007, published 2009).

Key:
[1] = Bile duct microdialysis with HPLC-UV of unbound cefoperazone in rat bile; assay type: in vivo; details: male, Sprague-Dawley, bile microdialysate (bile duct), 360 min following cefoperazone intravenous administration (30 mg/kg), read-out: cefoperazone concentration in microdialysate from rat biliary duct
Method: Adult, male Sprague-Dawley rats (280-350 g) were obtained from the Laboratory Animal Center at National Yang-Ming University (Taipei, Taiwan). These animals were specifically pathogen-free and were allowed to acclimate to their environmentally controlled quarters (24±1° C. and 12:12 h light-dark cycle) for at least 5 days before the experiments began. At the start of experiments, the rats were anesthetized with urethane 0.8 g/ml and chloralose 0.08 g/ml ([…], i.p.). Throughout the experimental period, anesthesia was maintained by administering one quarter of the initial dose at each hour. The experimental animals were kept warm with a heating pad throughout the experiments.
The HPLC system consisted of a chromatographic pump (BAS PM-80, Bioanalytical System, West Lafayette, Ind., USA), an on-line injector (CMA/160, Stockholm, Sweden) equipped with a 20 μl sample loop and a UV detector (Soma S-3702, Tokyo, Japan). […] Output signal from the HPLC-UV was recorded using an EZChrom chromatographic data system (Scientific Software, San Ramon, Calif., USA). […]
For in vivo recovery, normal saline solution containing cefoperazone (50 or 100 μg/ml) were pumped through the probes at a constant flow rate (2 μl/min) using the infusion pump (CMA/100). After a stabilization period of 2 h, the inlet (C^in) and outlet (C^out) concentrations of cefoperazone were determined by HPLC. […]

c-FLIP promoter = c-FLIP promoter luciferase assay in fluoxetine-treated NSCs; assay type: cell-based, rat; details: fluoxetine 20 μm
Method: All animal used were treated in accordance with the Animal Care and Use Committee guideline at Taipei Veterans General Hospital. Adult Sprague-Dawley rats (8 weeks old, 250 g) were anesthetized with intraperitoneal phenobarbital (Sigma, USA). The location of their brains was mapped: then, the brain was surgically separated from the hippocampus region with the procedure. Tissues from the hippocampus of the adult SD rats were dissociated and incubated in Hank's balanced salt solution (HBSS) containing collagenase (78 units/ml) and hyaluronidase (38 units/ml) for 10 mins at 37° C. The tissues were then mechanically dissected and placed in a trypsin solution (1.33 mg/ml) at 37° C. for another 10 mins. Dissociated cells were then centrifuged at 150 g for 5 mins. The enzyme solution was then removed and replaced with serum-free culture media composed of Dulbecco modified Eagle medium (DMEM) and F-12 nutrient (1:1) including insulin (25 μg/mL), transferrin (100 μg/mL), progesterone (20 nM), putrescine (60 μM), sodium selenite (30 nM), and human […] epidermal growth factor (EGF) 20 ng/mL and fibroblast growth factor-basic (bFGF) 20 ng/mL (R&D Systems, Minneapolis, Minn.). Viable cells were counted by trypan blue exclusion and plated as 5000 cells/200 μL per well in 96-well plates (Corning, Acton, Mass.) with no substrate pretreatment. […]

c-FLIP [2] = assay: c-FLIP mRNA expression in fluoxetine-treated NSCs (real-time RT-PCR); assay type: cell-based, rat; details: FL-treated NSCs
Method: All animal used were treated in accordance with the Animal Care and Use Committee guideline at Taipei Veterans General Hospital. Adult Sprague-Dawley rats (8 weeks old, 250 g) were anesthetized with intraperitoneal phenobarbital (Sigma, USA). The location of their brains was mapped: then, the brain was surgically separated from the hippocampus region with the procedure. Tissues from the hippocampus of the adult SD rats were dissociated and incubated in Hank's balanced salt solution (HBSS) containing collagenase (78 units/ml) and hyaluronidase (38 units/ml) for 10 mins at 37° C. The tissues were then mechanically dissected and placed in a trypsin solution (1.33 mg/ml) at 37° C. for another 10 mins. Dissociated cells were then centrifuged at 150 g for 5 mins. […] Viable cells were counted by trypan blue exclusion and plated as 5000 cells/200 μL per well in 96-well plates (Corning, Acton, Mass.) with no substrate pretreatment.
For real-time RT-PCR, the total RNA was extracted using the RNAeasy kit (Qiagen, Valencia, Calif., USA) as previously described C. […] The quantification in the unknown samples was performed by the LightCycler Relative Quantification Software version 3.3 (Roche Molecular Systems, Alameda, Calif., USA). […]

c-FLIP [3] = assay: Protein levels of c-FLIP and pro-caspases in fluoxetine-treated NSCs (Western, immunostaining); assay type: cell-based, rat
Method: All animal used were treated in accordance with the Animal Care and Use Committee guideline at Taipei Veterans General Hospital. Adult Sprague-Dawley rats (8 weeks old, 250 g) were anesthetized with intraperitoneal phenobarbital (Sigma, USA). The location of their brains was mapped: then, the brain was surgically separated from the hippocampus region with the procedure. Tissues from the hippocampus of the adult SD rats were dissociated and incubated in Hank's balanced salt solution (HBSS) containing collagenase (78 units/ml) and hyaluronidase (38 units/ml) for 10 mins at 37° C. The tissues were then mechanically dissected and placed in a trypsin solution (1.33 mg/ml) at 37° C. for another 10 mins. Dissociated cells were then centrifuged at 150 g for 5 mins. The enzyme solution was then removed and replaced with serum-free culture media composed of Dulbecco modified Eagle medium (DMEM) and F-12 nutrient (1:1) including insulin (25 μg/mL), transferrin (100 μg/mL), progesterone (20 nM), putrescine (60 μM), sodium selenite (30 nM), and human […] epidermal growth factor (EGF) 20 ng/mL and fibroblast growth factor-basic (bFGF) 20 ng/mL (R&D Systems, Minneapolis, Minn.). Viable cells were counted by trypan blue exclusion and plated as 5000 cells/200 μL per well in 96-well plates (Corning, Acton, Mass.) with no substrate pretreatment.
The pGL3-FLIP was obtained from based on T. Bartke et al., Oncogene 20 (2001) 571-580. The c-FLIP promoter deletion constructs pGL3-FLIP978, pGL3-FLIP696, pGL3-FLIP414 and pGL3-FLIP132 were generated by PCR amplification of corresponding DNA sequences from pGL3-FLIP using the following forward primers 5′-[…] […]
An avidin-biotin complex method was used for the immunohistochemical staining in the differentiated NSCs. […] Immunoreactive signals were detected with a mixture of biotinylated rabbit antimouse IgG and Fluoesave (Calbiochem, La Jolla, Calif., USA) under immunofluorescent microscope (Olympus FV300).

[4] = different concentrations of fluoxetine treatment

Row | Compound | concentration at 360 min [1] [ng/mL] | c-FLIP promoter (−414 to −133 bp) region activity (c-FLIP promoter) | mRNA expression of c-FLIP (c-FLIP [2]) | protein expression of c-FLIP (c-FLIP [3]; FL-treated NSCs) | protein level of inactive caspase 3 (pro-form) (c-FLIP [3]; [4]) | protein level of inactive caspase 8 (pro-form) (c-FLIP [3]; [4])
1 | CCN1CCN(C(=O)N[C@@H](C(=O)N[C@@H]2C(=O)N3C(C(=O)O)=C(CSc4nnnn4C)CS[C@H]23)c2ccc(O)cc2)C(=O)C1=O [cefoperazone] | 27800 |  |  |  |  | 
2 | CNCCC(Oc1ccc(C(F)(F)F)cc1)c1ccccc1 (stereo not drawn) [FL, fluoxetine] |  | Activates | up-regulated | up-regulated | not decreased | not decreased
